# Test results reported in article PMC7070167, “Cell‐permeable high‐affinity tracers for Gq proteins provide structural insights, reveal distinct binding kinetics and identify small molecule inhibitors” (British Journal of Pharmacology, 2020).
# “And” between values parts separate entries of the source, which are not always exact repeats. Equal values may be shown once. *1 amine or outer side, *2 acyl side, *3 side chain or, on linkers, in order; H or OH if unused. Where a SMILES comes first, the peptide text is derived from it. Bridges are numbered along the chain shown (N, C = ends). [ ]: non-standard residue; d: D form. The star is where a group is joined. Leu(3R-O(AcLeu(3R-OH))) = CC(=O)N[C@H](C(=O)O[C@H](C(C)C)[C@H](N)C(=O)O)[C@H](O)C(C)C; Leu(3R-OH,Nα-propionyl) = CCC(=O)N[C@H](C(=O)*)[C@H](O)C(C)C; X1 = CC(C)[C@@H](O[*:3])[C@H](N[*:1])C(=O)[*:2]; NMeT = CN[C@H](C(=O)O)[C@@H](C)O; dPhLac = O=C(O)[C@H](O)Cc1ccccc1; NMeA = CN[C@@H](C)C(=O)O; NMeDha = C=C(NC)C(=O)O
# Molecular target: T1, Gq proteins (Homo sapiens, UniProt P50148)
# T1 construct: Native cell membrane preparations from rat brain cortex and human blood platelets; host or cells: human platelets (intact suspension or membrane preparation)
# T1 sequence (P50148 1-359): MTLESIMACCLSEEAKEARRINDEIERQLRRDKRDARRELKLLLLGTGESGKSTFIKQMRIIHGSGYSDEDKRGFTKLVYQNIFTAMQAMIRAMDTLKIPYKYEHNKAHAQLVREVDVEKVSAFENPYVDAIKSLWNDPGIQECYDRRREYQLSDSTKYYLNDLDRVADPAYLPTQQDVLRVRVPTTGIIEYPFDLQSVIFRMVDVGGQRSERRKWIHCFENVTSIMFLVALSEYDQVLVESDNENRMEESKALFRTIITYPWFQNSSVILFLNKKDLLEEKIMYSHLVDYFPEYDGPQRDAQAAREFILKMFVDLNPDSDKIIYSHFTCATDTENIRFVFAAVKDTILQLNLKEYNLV
# Test: Competition binding at human platelet membrane preparations
# Conditions: for Ki / pseudo‐Bmax from pseudohomologous competition: human platelet membranes, 37°C
# Experimental: Apheresis‐purified human thrombocyte‐plasma concentrates were centrifuged (1,000 g at 4°C for 10 min), and the supernatant was decanted and centrifuged again (at 48,400 g, 4°C, for 60 min). The supernatant was kept and used as platelet‐poor plasma for control experiments; the formed pellet was resuspended in buffer 1 (50‐mM Tris–HCl, 5‐mM EDTA, and 150‐mM NaCl) and centrifuged at 48,400 g, 4°C for 60 min. The supernatant was discarded again and the pellet was resuspended in buffer 2 (5‐mM Tris–HCl and 5‐mM EDTA). The cell suspension was homogenized using an Ultra‐Turrax® (IKA Laborechnik, Staufen, Germany) for 1 min at a speed level of 4, subsequently transferred into cryovials, and stored at −80°C before use (the preparation is stable for several months). For radioligand binding assays, 50 μg of protein per vial was used, determined by the method of Bradford (Bio‐Rad Protein Assay).
# The experiments were performed in 50‐mM Tris–HCl buffer, pH 7.4. The final assay volume of 200 μl contained 5 μl of test compound in DMSO, 50 μl of [^3H]PSB‐15900 or [^3H]PSB‐16254, respectively, in buffer, 5 nM of final concentration, and 100 μl of human platelet membrane preparation (50 μg of protein) or intact human platelets (7.5 × 10^6 cells/vial). Non‐specific binding was determined in the presence of 5‐μM FR. The incubation was started by the addition of membrane preparation and was performed at 37°C for 1 hr with gentle shaking. It was terminated by rapid vacuum filtration through GF/C glass‐fibre filters using a Brandel 24‐well harvester. The filters were rinsed three times with approximately 3 ml each of ice‐cold Tris–HCl buffer, 50 mM, pH 7.4 containing 0.1% Tween 20 and 0.1% BSA, to separate bound from free radioligand. The filters were punched out and transferred to scintillation vials. Luma Safe® scintillation cocktail (2.5 ml) was added, and after 6 hr of incubation, the samples were counted for 1 min each, using a liquid scintillation counter (counting efficiency 53%). Experiments in the presence of GTP were additionally performed after preincubation of the membrane preparation with GTP for 1 hr. pIC50 and pKi values were calculated using equations for one‐site competition as implemented in GraphPad Prism 6.01 (GraphPad Inc., La Jolla, CA, USA).
# [1] = pKi, versus [^3H]PSB‐15900 (5 nM)
# [2] = pKi, versus [^3H]PSB‐16254 (5 nM)
smiles,measurement,setting,value
"C=C1C(=O)N[C@@H](C)C(=O)N(C)[C@@H](C)C(=O)N[C@@H]([C@H](OC(=O)[C@@H](NC(=O)CC)[C@H](O)C(C)C)C(C)C)C(=O)N(C)[C@@H]([C@@H](C)OC)C(=O)O[C@H](C(C)C)[C@H](NC(C)=O)C(=O)O[C@H](Cc2ccccc2)C(=O)N1C [FR, FR900359] (Ac-[X1][dPhLac][NMeDha]A[NMeA][X1](Leu(3R-OH,Nα-propionyl))[NMeT](Me); ester 1-C)",Kd,,4.1 ± 0.5 nM
same,Ki,"Ki, versus both radioligands",3 to 5 nM
same,Ki,"Ki, versus [³H]PSB-15900 (5 nM), standard 24-well format",6.91 ± 2.25 nM
same,Ki,[1],4.07 nM
same,Ki,[2],2.51 nM
same,Ki,"pKi, versus [³H]PSB-15900 (5 nM), standard 24-well format",6.76 nM
same,pseudo‐Bmax from pseudohomologous competition,versus [^3H]PSB‐15900 (5 nM),6.28 ± 1.12 pmol·mg^−1 of protein and 6.28 pmol·mg^−1 of protein
"C=C1C(=O)N[C@@H](C)C(=O)N(C)[C@@H](C)C(=O)N[C@@H]([C@H](OC(=O)[C@@H](NC(C)=O)[C@H](O)C(C)C)C(C)C)C(=O)N(C)[C@@H]([C@@H](C)OC)C(=O)O[C@H](C)[C@H](NC(C)=O)C(=O)O[C@H](Cc2ccccc2)C(=O)N1C [YM, YM‐254890] (Ac-T[dPhLac][NMeDha]A[NMeA][Leu(3R-O(AcLeu(3R-OH)))][NMeT](Me); ester 1-C)",Kd,,6.29 ± 0.84 nM
same,Ki,"Ki, versus both radioligands",3 to 5 nM
same,Ki,[1],5.01 nM
same,Ki,[2],6.31 nM
same,pseudo‐Bmax from pseudohomologous competition,versus [^3H]PSB‐16254 (5 nM),6.61 ± 0.60 pmol·mg^−1 of protein and 6.61 pmol·mg^−1 of protein
